Test: logP
Type: physicochemical
Details: intermediate amines of formula (II)

Row | SMILES | logP
1 | COc1cc2c(cc1OC)C(NC1CC1)C(C)(C)CO2 (stereo not shown) [Example 167] | 1.22
2 | CC1Cc2ccccc2C1NC1CC1 (stereo not shown) [Example 171] | 0.81
3 | c1ccc2c(c1)OCCC2NC1CC1 (stereo not shown) [Example 175] | 0.32
4 | Clc1ccc2c(c1)C(NC1CC1)CCO2 (stereo not shown) [Example 176] | 0.83

Results, then the molecule that gave them:

Row | logP | SMILES
5 | 0.67 | c1ccc2c(c1)SCCC2NC1CC1 (racemic) [Example 177]
6 | 1.26 | CC1(C)CCC(NC2CC2)c2ccccc21 (racemic) [Example 178]
7 | 1.15 | CC1(C)CC(NC2CC2)c2ccccc21 (stereo not shown) [Example 174]

— US9102588B2, “Fungicide N-cycloalkyl-N-bicyclic-carboxamide derivatives” (priority 2007, dated 2015)
